Read-outs that look alike come from different tables or passages of the source.
Assays:
[1] = biological target: T1, DRB4=HLA-DR(α1*0101,α4*0101) (Homo sapiens, UniProt P01903+P13762, G164S); test: HLA-DR specific binding assay, DRB4 (DR53)
T1 construct: endogenous in cells

[2] = biological target: T2, DR3=HLA-DR(α1*0101,α1*0301) (Homo sapiens, UniProt P01903+P01911, A100K/A102G/A103R/A169T/F55Y/I96L/K41T/L162R/M171V/P40S/Q125H/Q178H/Q39Y/R42S/S66N/T106N/T262R/W38E/Y61H); test: HLA-DR specific binding assay, DR3
T2 construct: endogenous in cells; host or cells: STEILIN (EBV homozygous B cell line)

[3] = biological target: T3, DR4=HLA-DR(α1*0101,α1*0401) (Homo sapiens, UniProt P01903+P01911, A100K/A169T/F76Y/I96L/K127E/L162R/M171V/N62H/P40V/Q125Y/R42H/S133A/S149N/S66Y/V115G/V209L/W38E); test: biochemical; format: binding
T3 construct: endogenous in cells; host or cells: BOLETH (EBV homozygous B cell line)

[4] = biological target: T4, DR7=HLA-DR(α1*0101,α1*0701) (Homo sapiens, UniProt P01903+P01911, A100R/A102G/A103Q/D57E/D86V/E43K/F76Y/K127E/L162R/M171V/P40G/Q125H/Q99D/R33Q/R42Y/R54Q/S133A/S66F/T210M/V115G/Y107V/Y59L/Y89S); test: HLA-DR specific binding assay, DR7
T4 construct: endogenous in cells; host or cells: EBV homozygous human B cell line

[5] = biological target: T5, DRB3=HLA-DR(α1*0101,α3*0101) (Homo sapiens, UniProt P01903+P79483); test: HLA-DR specific binding assay, DRB3 (DR52)
T5 construct: endogenous in cells; host or cells: STEILIN or 0206AD (both typed DRB3*0101)
T5 sequence (P79483 30-266, other chains not shown): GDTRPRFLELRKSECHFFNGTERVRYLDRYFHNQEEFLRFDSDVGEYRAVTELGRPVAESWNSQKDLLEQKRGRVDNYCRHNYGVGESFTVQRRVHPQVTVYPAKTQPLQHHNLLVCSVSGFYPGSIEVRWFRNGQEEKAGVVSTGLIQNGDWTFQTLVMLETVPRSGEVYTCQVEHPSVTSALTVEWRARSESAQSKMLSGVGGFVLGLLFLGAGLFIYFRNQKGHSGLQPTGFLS

[6] = system: HLA-DR and HLA-DP molecules; test: MHC class II binding assays, panel of twelve HLA class II molecules (number of alleles bound); conditions: number of the twelve class II MHC alleles bound; title: Threshold 600 nM/5 alleles
[7] = biological target: T6, I-E^d molecule (Mus musculus, UniProt P01904+P01915); test: Binding to I-E^d molecule; parameters: species or system mice
T6 sequence (P01904 26-255): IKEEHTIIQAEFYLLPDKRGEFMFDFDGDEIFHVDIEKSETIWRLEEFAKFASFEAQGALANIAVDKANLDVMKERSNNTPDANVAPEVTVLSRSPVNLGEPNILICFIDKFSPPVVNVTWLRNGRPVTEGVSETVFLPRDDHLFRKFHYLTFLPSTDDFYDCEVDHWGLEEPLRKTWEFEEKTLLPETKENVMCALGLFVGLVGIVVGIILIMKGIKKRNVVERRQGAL
T6 sequence (P01915 32-264): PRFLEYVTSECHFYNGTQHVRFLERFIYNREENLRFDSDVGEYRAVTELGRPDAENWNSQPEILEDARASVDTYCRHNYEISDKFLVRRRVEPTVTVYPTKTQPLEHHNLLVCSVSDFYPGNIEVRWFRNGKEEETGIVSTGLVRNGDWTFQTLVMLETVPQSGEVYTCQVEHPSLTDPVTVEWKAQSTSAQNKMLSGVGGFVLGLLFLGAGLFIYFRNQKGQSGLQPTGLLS

[8] = system: T-cells; test: Cytokine analysis (IL-2, IL-4, IFN-γ sandwich ELISA); format: cell-based, mice
Experimental: T-cells were stimulated with either immunizing peptides (10 μg/ml), the irrelevant control peptide (10 μg/ml), UV-inactivated HSV-1 (MOI=3), or with ConA (0.5 μg/ml) as a positive control. Culture media were harvested 48 h (for IL-2) or 96 h (for IL-4 and IFN-γ) later and analyzed by specific sandwich ELISA following the manufacturer's instructions (PharMingen, San Diego, Calif.).

[9] = IC50, DR3, Class II MHC allele DR3
[10] = Class II MHC allele DR4, read-out: IC50, DR4
[11] = Table V, […], read-out: IC50 DR4
[12] = IC50, DRD3, Class II MHC allele DRD3 (so in the source)
[13] = T cells treated with Abs to CD4
[14] = T cells treated with Abs to CD8
[15] = splenocyte derived T cells, no Abs, average of triplicates (+/- SD)

Row | SMILES | IC50 [1] | IC50 [2, 9] | IC50 ([2]; IC50 DR3, Table V, […]) | IC50 [3, 10] | IC50 [3, 11] | IC50 [4] | IC50 [5, 12] | IC50 ([5]; IC50 DRB3, Table V, […]) | Range [6] | binding to I-E^d molecule [7] | IC50 ([3]; IC50, DR4) | IC50 ([3]; IC50 DR4) | IFNγ, Anti-CD4 [8, 13] | IL-2, Anti-CD4 [8, 13] | IFNγ, Anti-CD8 [8, 14] | IL-2, Anti-CD8 [8, 14] | IFNγ, None [8, 15] | IL-2, None [8, 15]
1 | CC[C@H](C)[C@H](NC(=O)[C@H](CO)NC(=O)[C@@H]1CCCN1C(=O)[C@@H](NC(=O)[C@H](Cc1c[nH]cn1)NC(=O)[C@H](Cc1c[nH]c2ccccc12)NC(=O)[C@H](CC(N)=O)NC(=O)[C@@H]1CCCN1C(=O)[C@@H]1CCCN1C(=O)[C@@H](NC(=O)[C@H](CCC(N)=O)NC(=O)[C@@H]1CCCN1C(=O)[C@H](C)N)[C@@H](C)CC)[C@@H](C)CC)C(=O)N[C@@H](CCC(N)=O)C(=O)N[C@@H](CC(=O)O)C(=O)N[C@@H](C)C(=O)N[C@@H](C)C(=O)N[C@H](C(=O)N1CCC[C@H]1C(=O)N[C@@H](Cc1ccc(O)cc1)C(=O)N[C@@H](Cc1c[nH]cn1)C(=O)N1CCC[C@H]1C(=O)N1CCC[C@H]1C(=O)N[C@@H](C)C(=O)N[C@H](C(=O)N1CCC[C@H]1C(=O)N[C@@H](CC(N)=O)C(=O)N[C@@H](CC(N)=O)C(=O)N[C@@H](CCSC)C(=O)NCC(=O)N[C@@H](CC(C)C)C(=O)O)[C@@H](C)O)[C@@H](C)O [HSV 35] | 3260 nM | 19500 nM | 19500 nM | 600 nM | 600 nM | 2450 nM | 5000 nM | 5000 nM | 1 | strong binders |  |  |  |  |  |  |  | 
2 | CC[C@H](C)[C@H](NC(=O)[C@H](CO)NC(=O)[C@H](CC(=O)O)NC(=O)[C@@H](NC(=O)[C@@H](NC(=O)[C@@H](NC(=O)CNC(=O)[C@H](CCC(N)=O)NC(=O)[C@H](CCC(N)=O)NC(=O)[C@H](Cc1ccc(O)cc1)NC(=O)[C@H](C)NC(=O)[C@H](CCC(N)=O)NC(=O)[C@@H]1CCCN1C(=O)[C@H](CO)NC(=O)[C@H](CC(C)C)NC(=O)[C@H](CS)NC(=O)[C@H](C)NC(=O)[C@@H](N)CO)C(C)C)[C@@H](C)O)C(C)C)C(=O)NCC(=O)N[C@@H](CCSC)C(=O)N[C@@H](CC(C)C)C(=O)N1CCC[C@H]1C(=O)N[C@@H](CCCNC(=N)N)C(=O)N[C@@H](Cc1ccccc1)C(=O)N[C@H](C(=O)N1CCC[C@H]1C(=O)N[C@@H](CCC(=O)O)C(=O)N[C@@H](CC(N)=O)C(=O)N[C@@H](CCC(N)=O)C(=O)N[C@@H](CCCNC(=N)N)C(=O)N[C@H](C(=O)N[C@H](C(=O)N[C@@H](C)C(=O)N[C@H](C(=O)N[C@@H](Cc1ccc(O)cc1)C(=O)O)C(C)C)C(C)C)[C@@H](C)O)[C@@H](C)CC [HSV 37] | 3740 nM | 307 nM | 307 nM |  |  | 200 nM | 41 nM | 41 nM | 9 | strong binders | 40 nM | 40 nM |  |  |  |  |  | 
3 | CC[C@H](C)[C@H](NC(=O)[C@@H]1CCCN1C(=O)[C@H](CS)NC(=O)[C@H](C)NC(=O)CNC(=O)[C@H](CC(C)C)NC(=O)[C@H](CO)NC(=O)[C@H](CCCCN)NC(=O)[C@@H](N)CC(N)=O)C(=O)N[C@@H](CCCNC(=N)N)C(=O)N[C@H](C(=O)N[C@@H](CCC(N)=O)C(=O)N1CCC[C@H]1C(=O)N[C@@H](CCCNC(=N)N)C(=O)N[C@@H](Cc1c[nH]c2ccccc12)C(=O)N[C@@H](CC(N)=O)C(=O)N[C@@H](Cc1ccc(O)cc1)C(=O)N[C@@H](Cc1ccc(O)cc1)C(=O)N[C@@H](CC(=O)O)C(=O)N[C@@H](CO)C(=O)N[C@@H](Cc1ccccc1)C(=O)N[C@@H](CO)C(=O)N[C@@H](C)C(=O)N[C@H](C(=O)N[C@@H](CO)C(=O)N[C@@H](CCC(=O)O)C(=O)N[C@@H](CC(=O)O)C(=O)N[C@@H](CC(N)=O)C(=O)N[C@@H](CC(C)C)C(=O)NCC(=O)N[C@@H](Cc1ccccc1)C(=O)N[C@@H](CC(C)C)C(=O)O)C(C)C)[C@@H](C)O [HSV 33] | 319 nM | 66 nM | 66 nM | 6 nM | 8 nM | 19 nM | 226 nM | 226 nM | 12 |  |  |  |  |  |  |  |  | 
4 | CC[C@H](C)[C@H](NC(=O)[C@H](CCC(N)=O)NC(=O)[C@@H]1CCCN1C(=O)[C@H](C)NC(=O)[C@H](CCC(=O)O)NC(=O)[C@H](CO)NC(=O)[C@@H]1CCCN1C(=O)[C@H](C)NC(=O)[C@H](CC(N)=O)NC(=O)[C@H](CC(C)C)NC(=O)[C@H](CC(C)C)NC(=O)[C@@H](NC(=O)[C@H](CO)NC(=O)[C@H](CCCNC(=N)N)NC(=O)[C@H](CS)NC(=O)[C@H](C)NC(=O)[C@H](CCCNC(=N)N)NC(=O)[C@H](CCC(=O)O)NC(=O)[C@H](CC(C)C)NC(=O)[C@@H](NC(=O)[C@H](C)NC(=O)[C@H](Cc1ccc(O)cc1)NC(=O)[C@H](Cc1ccc(O)cc1)NC(=O)[C@@H](NC(=O)[C@@H](NC(=O)[C@@H](NC(=O)[C@@H]1CCCN1C(=O)[C@H](CC(C)C)NC(=O)[C@H](CO)NC(=O)[C@@H]1CCCN1C(=O)[C@@H]1CCCN1C(=O)[C@@H](N)CCC(N)=O)[C@@H](C)CC)[C@@H](C)O)C(C)C)C(C)C)C(C)C)C(=O)N[C@H](C(=O)N[C@@H](CCCNC(=N)N)C(=O)O)C(C)C [HSV 36] |  | 1250 nM | 1250 nM | 93 nM | 93 nM | 173 nM | 5000 nM | 5000 nM | 9 |  |  |  | 6 (+/−2) ng/ml | 22 (+/−2) pg/ml | 66 (+/−2) ng/ml | 88 (+/−5) pg/ml | 60 (+/−4) ng/ml | 92 (+/−5) pg/ml

Reference: patent US20080299140A1, “Immunogenic Composition and Peptide Sequences for Prevention and Treatment of an Hsv Condition” (priority 2002, published 2008)
